Assay results taken from PMC3432483 (Blood Cancer Journal, 2012).

Key:
MV4-11 cells [1] = assay: FMCA cytotoxicity, MV4-11 cell line; format: cell-based, human
RPS6K = assay: 320-kinase panel screen, radiometric protein kinase assay, RPS6K; format: biochemical; conditions: 1 μM
primary AML cells [2] = assay: FMCA cytotoxicity, primary AML patient cells; format: cell-based, human
RPS6KA = assay: Full dose-response kinase assay; format: biochemical
MV4-11 cells [3] = assay: Combination studies with cytarabine or daunorubicin
[4] = Pharmacokinetic studies in C57 black mice; format: in vivo, mouse
[5] = system: HeLa, ACHN and NCI-H69 cell lines; assay: FMCA cytotoxicity, solid tumor cell lines; format: cell-based, human; conditions: 72 h
MV4-11 cells [6] = assay: Apoptosis assay; format: cell-based, human; conditions: 10 μM, up to 48 h
MV4-11 cells [7] = assay: Mouse hollow-fiber model, MV4-11; format: in vivo; conditions: NMRI male mice, 15 mg/kg s.c. twice daily, 6 days
ERK 1, 2 = assay: ERK radiometric protein kinase assay; format: biochemical; conditions: 1 μM, 60 min
MOLM-13 cells = assay: Alamar Blue cytotoxicity, MOLM-13 cells; format: cell-based; conditions: Homo sapiens, MOLM-13, read-out: cytotoxic activity IC50, MOLM-13
VEGFR2 = VEGFR2 (Homo sapiens, UniProt P35968); assay: Full dose-response kinase assay; format: biochemical
primary AML cells [8] = assay: Mouse hollow-fiber model, primary AML cells; format: in vivo; conditions: NMRI male mice, 15 mg/kg s.c. twice daily, 6 days
Plasma protein binding = format: in vitro ADME
FGFR2 = FGFR2 (Homo sapiens, UniProt P21802); assay: biochemical
AKT 1, 2, 3 = assay: AKT radiometric protein kinase assay; format: biochemical; conditions: 1 μM, 60 min
CLK kinases = assay: 320-kinase panel screen, radiometric protein kinase assay, CLK kinases; format: biochemical; conditions: 1 μM, 60 min incubation
CDC-like kinase 1 (CLK1) = CDC-like kinase 1 (CLK1) (Homo sapiens, UniProt P49759); assay: Full dose-response kinase assay; format: biochemical
Sequence of CDC-like kinase 1 (CLK1) (P49759 whole entry): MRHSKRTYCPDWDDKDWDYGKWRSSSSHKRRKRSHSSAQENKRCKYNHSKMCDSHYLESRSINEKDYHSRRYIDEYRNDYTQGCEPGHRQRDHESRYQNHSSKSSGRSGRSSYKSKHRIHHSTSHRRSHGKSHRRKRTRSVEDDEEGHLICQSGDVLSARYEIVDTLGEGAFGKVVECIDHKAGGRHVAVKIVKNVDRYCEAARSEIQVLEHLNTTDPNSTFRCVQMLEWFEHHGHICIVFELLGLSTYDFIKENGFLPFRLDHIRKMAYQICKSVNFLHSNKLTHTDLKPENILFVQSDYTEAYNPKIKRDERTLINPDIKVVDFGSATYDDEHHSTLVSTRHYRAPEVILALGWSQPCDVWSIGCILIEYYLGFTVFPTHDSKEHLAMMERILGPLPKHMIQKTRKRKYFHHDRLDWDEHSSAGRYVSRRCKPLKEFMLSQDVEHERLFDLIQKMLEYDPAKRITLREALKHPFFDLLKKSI

Sequence of VEGFR2 (P35968 20-1356): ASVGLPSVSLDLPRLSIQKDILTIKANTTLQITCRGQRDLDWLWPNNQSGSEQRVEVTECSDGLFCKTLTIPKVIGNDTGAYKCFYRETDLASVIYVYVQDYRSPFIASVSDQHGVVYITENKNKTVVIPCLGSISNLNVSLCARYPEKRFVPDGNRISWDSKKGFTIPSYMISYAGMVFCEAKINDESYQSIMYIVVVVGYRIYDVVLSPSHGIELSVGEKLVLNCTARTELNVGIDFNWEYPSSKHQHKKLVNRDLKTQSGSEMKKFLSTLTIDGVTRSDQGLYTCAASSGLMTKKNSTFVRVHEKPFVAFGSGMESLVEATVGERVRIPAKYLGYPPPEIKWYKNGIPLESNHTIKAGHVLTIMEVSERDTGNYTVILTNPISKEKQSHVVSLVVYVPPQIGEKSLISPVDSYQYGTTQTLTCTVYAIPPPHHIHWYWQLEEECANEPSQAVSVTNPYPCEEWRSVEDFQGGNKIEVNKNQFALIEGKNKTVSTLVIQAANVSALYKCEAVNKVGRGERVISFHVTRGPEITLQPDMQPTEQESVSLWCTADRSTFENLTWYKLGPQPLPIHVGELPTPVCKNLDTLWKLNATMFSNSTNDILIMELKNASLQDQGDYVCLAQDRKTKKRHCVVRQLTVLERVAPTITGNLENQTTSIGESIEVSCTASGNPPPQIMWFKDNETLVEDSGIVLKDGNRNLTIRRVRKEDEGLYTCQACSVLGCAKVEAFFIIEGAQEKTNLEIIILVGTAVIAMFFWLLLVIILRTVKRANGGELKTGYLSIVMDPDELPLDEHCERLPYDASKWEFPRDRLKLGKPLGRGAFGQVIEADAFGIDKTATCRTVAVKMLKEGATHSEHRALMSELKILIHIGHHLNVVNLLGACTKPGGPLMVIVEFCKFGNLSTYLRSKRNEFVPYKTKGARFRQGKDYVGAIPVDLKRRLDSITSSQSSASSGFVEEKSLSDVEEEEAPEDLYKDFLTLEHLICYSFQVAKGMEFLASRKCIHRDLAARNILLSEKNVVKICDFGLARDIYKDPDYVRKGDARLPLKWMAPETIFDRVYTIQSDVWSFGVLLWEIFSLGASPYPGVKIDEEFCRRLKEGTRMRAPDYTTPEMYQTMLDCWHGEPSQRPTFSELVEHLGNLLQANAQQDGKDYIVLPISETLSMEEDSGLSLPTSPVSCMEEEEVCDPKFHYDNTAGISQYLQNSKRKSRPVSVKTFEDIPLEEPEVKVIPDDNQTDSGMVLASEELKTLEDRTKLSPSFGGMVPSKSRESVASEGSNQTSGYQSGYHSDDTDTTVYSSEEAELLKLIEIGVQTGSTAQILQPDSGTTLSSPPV
Sequence of FGFR2 (P21802 22-821): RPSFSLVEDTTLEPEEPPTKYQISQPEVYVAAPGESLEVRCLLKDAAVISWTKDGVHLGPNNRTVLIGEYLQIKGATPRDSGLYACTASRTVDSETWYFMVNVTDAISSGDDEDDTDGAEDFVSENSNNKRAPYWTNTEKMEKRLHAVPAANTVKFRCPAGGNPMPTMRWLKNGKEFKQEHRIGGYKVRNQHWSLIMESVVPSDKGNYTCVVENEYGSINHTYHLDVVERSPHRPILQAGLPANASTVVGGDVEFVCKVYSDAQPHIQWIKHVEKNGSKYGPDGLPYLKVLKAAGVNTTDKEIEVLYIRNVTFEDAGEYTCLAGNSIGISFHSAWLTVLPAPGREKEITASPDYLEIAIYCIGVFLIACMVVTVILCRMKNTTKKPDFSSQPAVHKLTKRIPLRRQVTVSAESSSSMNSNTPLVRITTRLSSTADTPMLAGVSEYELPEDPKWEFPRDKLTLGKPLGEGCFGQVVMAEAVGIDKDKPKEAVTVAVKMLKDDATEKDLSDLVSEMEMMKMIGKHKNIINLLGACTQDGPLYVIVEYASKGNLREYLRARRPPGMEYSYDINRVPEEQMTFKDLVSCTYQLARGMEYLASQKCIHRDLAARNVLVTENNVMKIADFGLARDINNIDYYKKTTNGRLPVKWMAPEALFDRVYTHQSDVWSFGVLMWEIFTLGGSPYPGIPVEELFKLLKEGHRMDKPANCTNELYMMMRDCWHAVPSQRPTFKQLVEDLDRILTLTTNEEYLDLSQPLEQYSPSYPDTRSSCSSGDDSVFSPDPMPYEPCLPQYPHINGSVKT

CC(C)(C)c1cc(NC(=O)Nc2ccc(-c3cn4c(n3)sc3cc(OCCN5CCOCC5)ccc34)cc2)no1 [AC220, reference compound]
cytotoxic efficacy in MV4-11 (MV4-11 cells [1]; FMCA dose-response): full efficacy
inhibition of RPS6K in kinase-panel screen (RPS6K): did not inhibit
cytotoxic response in primary AML samples (primary AML cells [2]; FMCA, 11 additional AML patient samples (UPN 14-24)): varied considerably

Nc1ncc(-c2ccncc2)nc1Nc1ccc2[nH]ccc2c1 [AKN-028, N-3-(1H-indol-5-yl)-5-pyridin-4-yl-pyrazine-2,3-diamine]
IC50 RPS6KA (RPS6KA): 220 nℳ nM
IC50 (MV4-11 cells [1]; Homo sapiens, MV4-11, 72 h, read-out: cytotoxic activity IC50, MV4-11): < 50 nM
drug interaction (mean combination index) with cytarabine (MV4-11 cells [3]; cytarabine simultaneously or 24 h before AKN-028, cytarabine:AKN-028 2.5:1): synergy
drug interaction (mean combination index) with daunorubicin (MV4-11 cells [3]; daunorubicin simultaneously or 24 h before AKN-028, daunorubicin:AKN-028 1:20): synergy
drug interaction (mean combination index) with cytarabine (MV4-11 cells [3]; pre-treated with AKN-028 24 h, followed by cytarabine): antagonism
drug interaction (mean combination index) with daunorubicin (MV4-11 cells [3]; pre-treated with AKN-028 24 h, followed by daunorubicin): antagonism
plasma target concentration ([4]; IC90 divided by fraction unbound): 1 to 3 µM
predicted exposure time above plasma target concentration ([4]; hollow-fiber experiment, twice daily, target 1–3 μM): 1 h
cytotoxic effect in solid tumor cell lines HeLa, ACHN and NCI-H69 [5]: Almost no effect
apoptosis / caspase 3 activation in MV4-11 (MV4-11 cells [6]): induced apoptosis by activation of caspase 3
remaining enzyme activity, RPS6K (RPS6K; 60 min incubation): Less than 20%
net growth in hollow fibers, MV4-11 (MV4-11 cells [7]): reduced the tumor mass
inhibition of ERK 1, 2 (ERK 1, 2): No direct inhibition
IC50 (MOLM-13 cells): < 50 nM
IC50 (VEGFR2): 520 nM
IC50 (primary AML cells [2]; Homo sapiens, read-out: mean IC50, primary AML samples, n=15 samples): 1000 nM
net growth in hollow fibers, primary AML sample UPN25 (primary AML cells [8]): no significant inhibition
net growth in hollow fibers, primary AML sample UPN26 (primary AML cells [8]): inhibited net growth
fraction unbound (Plasma protein binding): 0.035
IC50 (FGFR2): 1200 nM
inhibition of AKT 1, 2, 3 (AKT 1, 2, 3): No direct inhibition
remaining enzyme activity, CLK kinases (CLK kinases): Less than 20%
IC50 (CDC-like kinase 1 (CLK1)): 140 nM
